# Measured values as given in US20170022258A1, “PEPTIDES FOR USE IN THE TREATMENT OF IL-1 RELATED DISEASES AND CONDITIONS” (C4M PHARMACEUTICALS PTY LTD., priority 2011, published 2017).
# Non-standard residues stand in square brackets, D forms with d. Residues, ends and D or L forms follow the SMILES beside them. No end group written: not given here.
# T1: IL-1 receptor (Homo sapiens, UniProt P14778)
# T1 construct: confluent human monocytes, which express the IL-1 receptor; endogenous in cells; host or cells: human monocytes
# T1 sequence (P14778 18-569): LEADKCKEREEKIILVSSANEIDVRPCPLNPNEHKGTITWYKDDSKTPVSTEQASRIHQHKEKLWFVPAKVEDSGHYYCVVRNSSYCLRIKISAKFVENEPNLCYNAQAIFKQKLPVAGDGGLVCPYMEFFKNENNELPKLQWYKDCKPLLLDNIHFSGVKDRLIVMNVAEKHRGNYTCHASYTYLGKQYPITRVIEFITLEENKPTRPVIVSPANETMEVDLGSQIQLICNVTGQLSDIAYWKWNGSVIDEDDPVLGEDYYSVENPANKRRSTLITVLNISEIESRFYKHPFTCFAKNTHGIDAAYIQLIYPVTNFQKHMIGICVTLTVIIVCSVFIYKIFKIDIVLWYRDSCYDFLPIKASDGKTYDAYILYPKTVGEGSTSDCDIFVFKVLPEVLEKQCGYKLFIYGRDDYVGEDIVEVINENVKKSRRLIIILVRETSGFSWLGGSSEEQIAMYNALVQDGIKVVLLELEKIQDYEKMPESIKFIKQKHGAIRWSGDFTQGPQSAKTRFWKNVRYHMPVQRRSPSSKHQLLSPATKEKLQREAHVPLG
# T2: IL-1 receptor (IL-1R) expressed on human monocytes (human, UniProt P14778 18-569)
# T2 sequence (looked up): T1 sequence (P14778 18-569)
# Biological target: T1, IL-1 receptor
# Experiment: Radioligand competition binding assay (125I-labeled IL-1α) on human monocytes
# Settings: IL-1 binding antagonism on human monocytes; average of three measurements and standard error
# Description: Radioligand competition binding assays were performed in 96-well plates containing confluent human monocytes, which express the IL-1 receptor. Wells were washed three times with binding buffer, and binding buffer was placed in each well. Peptides were resuspended in dimethyl sulfoxide at 20 mM and diluted in binding buffer to the desired starting concentration. Using a Beckman robotic system, five 3-fold dilutions were prepared, and peptide solution was transferred to duplicate receptor-containing wells. To each well, radioactive ^125Iodine-labeled IL-Ia (Amersham) was added to a final concentration of 40 pM, and the plates were placed on a shaking platform at 4° C. for 2 hr. Plates were washed with PBS using a plate washer, and bound ^125I-labeled IL-la was eluted for 10 min with 0.1 M NaOH and counted in a gamma counter. IC50 values were determined by fitting the data to a two-parameter logistic equation. In all cases, nonspecific binding was determined by the addition of 3 μM of recombinant IL-Ia.
row,IC50 [nM],Molecule
1,> 10000,"CC(=O)N[C@@H](CC(N)=O)C(=O)N[C@@H](CC(N)=O)C(=O)N[C@@H](CCC(N)=O)C(=O)N[C@@H](CC(C)C)C(=O)N[C@H](C(=O)N[C@@H](C)C(=O)NCC(=O)N[C@@H](Cc1ccc(O)cc1)C(=O)N[C@@H](CC(C)C)C(=O)N[C@@H](CCC(N)=O)C(=O)NCC(=O)N1CCC[C@H]1C(=O)N[C@@H](CC(N)=O)C(=O)N[C@H](C(=O)N[C@@H](CC(N)=O)C(=O)O)C(C)C)C(C)C [SEQ ID NO. 7, Ac-NNQLVAGYLQGPNVN] (Ac-NNQLVAGYLQGPNVN-OH; C-terminus assumed)"
2,> 10000,CC[C@H](C)[C@H](NC(C)=O)C(=O)N[C@@H](CC(=O)O)C(=O)N[C@H](C(=O)N[C@H](C(=O)N1CCC[C@H]1C(=O)N[C@H](C(=O)N[C@@H](CCC(=O)O)C(=O)N[C@@H](C)C(=O)N1CCC[C@H]1C(=O)N[C@@H](Cc1c[nH]cn1)C(=O)N[C@@H](C)C(=O)N[C@@H](CC(C)C)C(=O)N[C@@H](Cc1ccccc1)C(=O)N[C@@H](CC(C)C)C(=O)NCC(=O)N[C@H](C(=O)N[C@@H](Cc1c[nH]cn1)C(=O)NCC(=O)NCC(=O)N[C@@H](CCCCN)C(=O)O)[C@@H](C)CC)[C@@H](C)CC)C(C)C)C(C)C [SEQ ID NO. 9] (Ac-IDVVPIEAPHALFLGIHGGK-OH; C-terminus assumed)
3,> 10000,"CC[C@H](C)[C@H](NC(=O)[C@H](CC(N)=O)NC(=O)[C@@H](NC(=O)[C@H](C)NC(=O)[C@H](CCC(=O)O)NC(=O)[C@H](CC(C)C)NC(=O)[C@H](CCC(N)=O)NC(=O)[C@H](CC(C)C)NC(C)=O)C(C)C)C(=O)N[C@H](C(=O)N[C@@H](CC(=O)O)C(=O)N[C@@H](CC(C)C)C(=O)N[C@@H](CO)C(=O)N[C@@H](CCC(=O)O)C(=O)N[C@@H](CC(N)=O)C(=O)N[C@@H](CCCNC(=N)N)C(=O)N[C@@H](CCCCN)C(=O)N[C@@H](CCC(N)=O)C(=O)N[C@@H](CC(=O)O)C(=O)N[C@@H](CCCCN)C(=O)O)[C@@H](C)O [SEQ ID NO. 11, Ac-LQLEAVNITDLSENRKQDK] (Ac-LQLEAVNITDLSENRKQDK-OH; C-terminus assumed)"

# Test system: IL-1 stimulation of IL-8 in human skin fibroblasts
# Experiment: Inhibition of IL-1 induced IL-8 in human fibroblasts
# Format: cell-based
# Settings: inhibition of IL-1 stimulation of IL-8 in human skin fibroblasts; average of three measurements and standard error; read-out: Binding (IC50 nM)
# Description: Inhibition of IL-1 induced IL-8 in human fibroblasts was determined using normal human dermal fibroblast cells cultured in DMEM with 10% fetal calf serum in 48-well plates.
# Twenty-four hours before initiation of the experiment, the medium was changed to DMEM with 0.2% fetal calf serum. Each peptide was added to confluent cells, which were then pulsed for 30 min with rIL-I,B (which was obtained from R & D Systems) at 50 pg/ml. The cells were washed four times with PBS, and fresh DMEM/0.2% fetal calf serum was added to each well. After 5 hr of incubation, the culture media were collected and analyzed by ELISA for IL-8 (which was obtained from R & D Systems). Maximal activation, with IL-1 only, was 2530±13 pg/ml of IL-8. Nonspecific activation, determined in the presence of 1000-fold excess IL-1Ra, was 30±9 pg/ml of IL-8 (n=3).
row,Molecule,IC50 [nM]
1,"CC(=O)N[C@@H](Cc1ccccc1)C(=O)N[C@H](C(=O)N[C@@H](Cc1c[nH]c2ccccc12)C(=O)N[C@@H](CCC(=O)O)C(=O)N[C@@H](CCC(=O)O)C(=O)N[C@@H](CO)C(=O)N[C@@H](CC(N)=O)C(=O)N[C@@H](C)C(=O)N[C@@H](Cc1ccc(O)cc1)C(=O)N[C@@H](Cc1ccc(O)cc1)C(=O)N[C@@H](Cc1c[nH]c2ccccc12)C(=O)N[C@@H](CCC(N)=O)C(=O)N1CCC[C@H]1C(=O)N[C@@H](Cc1ccc(O)cc1)C(=O)N[C@@H](C)C(=O)N[C@@H](CC(C)C)C(=O)N1CCC[C@H]1C(=O)N[C@@H](CC(C)C)C(=O)O)[C@@H](C)O [SEQ ID NO. 15, Ac-FTWEESNAYYWQPYALPL] (Ac-FTWEESNAYYWQPYALPL-OH; C-terminus assumed)",16
2,"CC(=O)N[C@H](CC(C)C)C(=O)N1CCC[C@@H]1C(=O)N[C@H](CC(C)C)C(=O)N[C@H](C)C(=O)N[C@H](Cc1ccc(O)cc1)C(=O)N1CCC[C@@H]1C(=O)N[C@H](CCC(N)=O)C(=O)N[C@H](Cc1c[nH]c2ccccc12)C(=O)N[C@H](Cc1ccc(O)cc1)C(=O)N[C@H](Cc1ccc(O)cc1)C(=O)N[C@H](C)C(=O)N[C@H](CC(N)=O)C(=O)N[C@H](CO)C(=O)N[C@H](CCC(=O)O)C(=O)N[C@H](CCC(=O)O)C(=O)N[C@H](Cc1c[nH]c2ccccc12)C(=O)N[C@@H](C(=O)N[C@H](Cc1ccccc1)C(=O)O)[C@H](C)O [SEQ ID NO. 16, Ac-LPLAYPQWYYANSEEWTF] (Ac-[dL][dP][dL][dA][dY][dP][dQ][dW][dY][dY][dA][dN][dS][dE][dE][dW][dT][dF]-OH; C-terminus assumed)",120
3,CC(=O)N[C@H](C(=O)N[C@@H](C)C(=O)N[C@@H](CC(N)=O)C(=O)N[C@H](C(=O)N[C@@H](CO)C(=O)N[C@@H](CO)C(=O)N[C@@H](Cc1ccccc1)C(=O)N[C@@H](CCC(=O)O)C(=O)N[C@@H](Cc1c[nH]c2ccccc12)C(=O)N[C@H](C(=O)N1CCC[C@H]1C(=O)NCC(=O)N[C@@H](Cc1ccc(O)cc1)C(=O)N[C@@H](Cc1c[nH]c2ccccc12)C(=O)N[C@@H](CCC(N)=O)C(=O)N1CCC[C@H]1C(=O)N[C@@H](Cc1ccc(O)cc1)C(=O)N[C@@H](C)C(=O)N[C@@H](CC(C)C)C(=O)N1CCC[C@H]1C(=O)N[C@@H](CC(C)C)C(=O)O)[C@@H](C)O)C(C)C)[C@@H](C)O [SEQ ID NO. 17] (Ac-TANVSSFEWTPGYWQPYALPL-OH; C-terminus assumed),76
4,CC(=O)N[C@H](CC(C)C)C(=O)N1CCC[C@@H]1C(=O)N[C@H](CC(C)C)C(=O)N[C@H](C)C(=O)N[C@H](Cc1ccc(O)cc1)C(=O)N1CCC[C@@H]1C(=O)N[C@H](CCC(N)=O)C(=O)N[C@H](Cc1c[nH]c2ccccc12)C(=O)N[C@H](Cc1ccc(O)cc1)C(=O)NCC(=O)N1CCC[C@@H]1C(=O)N[C@@H](C(=O)N[C@H](Cc1c[nH]c2ccccc12)C(=O)N[C@H](CCC(=O)O)C(=O)N[C@H](Cc1ccccc1)C(=O)N[C@H](CO)C(=O)N[C@H](CO)C(=O)N[C@@H](C(=O)N[C@H](CC(N)=O)C(=O)N[C@H](C)C(=O)N[C@@H](C(=O)O)[C@H](C)O)C(C)C)[C@H](C)O [SEQ ID NO. 18],810
5,CC(=O)N[C@@H](CC(=O)O)C(=O)NCC(=O)N[C@@H](Cc1ccc(O)cc1)C(=O)N[C@@H](CC(=O)O)C(=O)N[C@@H](CCCNC(=N)N)C(=O)N[C@@H](Cc1c[nH]c2ccccc12)C(=O)N[C@@H](CCCNC(=N)N)C(=O)N[C@@H](CCC(N)=O)C(=O)N[C@@H](CO)C(=O)NCC(=O)N[C@@H](CCC(=O)O)C(=O)N[C@@H](CCCNC(=N)N)C(=O)N[C@@H](Cc1ccc(O)cc1)C(=O)N[C@@H](Cc1c[nH]c2ccccc12)C(=O)N[C@@H](CCC(N)=O)C(=O)N1CCC[C@H]1C(=O)N[C@@H](Cc1ccc(O)cc1)C(=O)N[C@@H](C)C(=O)N[C@@H](CC(C)C)C(=O)N1CCC[C@H]1C(=O)N[C@@H](CC(C)C)C(=O)O [SEQ ID NO. 20] (Ac-DGYDRWRQSGERYWQPYALPL-OH; C-terminus assumed),19
6,CC(=O)N[C@H](CC(C)C)C(=O)N1CCC[C@@H]1C(=O)N[C@H](CC(C)C)C(=O)N[C@H](C)C(=O)N[C@H](Cc1ccc(O)cc1)C(=O)N1CCC[C@@H]1C(=O)N[C@H](CCC(N)=O)C(=O)N[C@H](Cc1c[nH]c2ccccc12)C(=O)N[C@H](Cc1ccc(O)cc1)C(=O)N[C@H](CCCNC(=N)N)C(=O)N[C@H](CCC(=O)O)C(=O)NCC(=O)N[C@H](CO)C(=O)N[C@H](CCC(N)=O)C(=O)N[C@H](CCCNC(=N)N)C(=O)N[C@H](Cc1c[nH]c2ccccc12)C(=O)N[C@H](CCCNC(=N)N)C(=O)N[C@H](CC(=O)O)C(=O)N[C@H](Cc1ccc(O)cc1)C(=O)NCC(=O)N[C@H](CC(=O)O)C(=O)O [SEQ ID NO. 21] (Ac-[dL][dP][dL][dA][dY][dP][dQ][dW][dY][dR][dE]G[dS][dQ][dR][dW][dR][dD][dY]G[dD]-OH; C-terminus assumed),730

# Biological target: IL-1 receptor (IL-1R) expressed on human monocytes (human) (UniProt P14778)
# Experiment: cell-based or functional assay
# Settings: not given
row,"IC50, in vitro inhibition of IL-1 stimulation of IL-8 in human skin fibroblasts (rIL-1β 50 pg/ml, IL-8 ELISA) [nM]",Molecule
1,11,"Ac-[dL][dP][dL][dA][dY][dP][dQ][dW][dY][dY][dA][dN][dS][dE][dE][dW][dT][dF][dP][dT][dE] [peptide of SEQ ID NO: 14 (Ac-…, D-amino acids)]"

# Biological target: T2, IL-1 receptor (IL-1R) expressed on …
# Experiment: cell-based or functional assay
# Settings: not given
row,"IC50, in vitro inhibition of IL-1 stimulation of IL-8 in human skin fibroblasts (rIL-1β 50 pg/ml, IL-8 ELISA) [nM]",Molecule
1,11,Ac-ETPFTWEESNAYYWQPYALPL (also called peptide 13) [peptide of SEQ ID NO: 13 (Ac-ETPFTWEESNAYYWQPYALPL)]
2,> 10000,"Ac-[dK][dD][dQ][dK][dR][dN][dE][dS][dL][dD][dT][dI][dN][dV][dA][dE][dL][dQ][dL] [peptide of SEQ ID NO: 12 (Ac-KDQKRNESLDTINVAELQL, D-amino acids)]"
